This is an account of results in ChEMBL document CHEMBL3507680, “University of Dundee, Gates Library screen for HepG2 cell viability”.

The data set in a line: Human HepG2 cell viability assay in 384 well format. Particulars: HepG2 cells, read-out: Inhibition. Set-up: dose 125 nL, time 70.5 hour; cytotoxicity at 70.5 h: concentration not given beside the values. The format is toxicity, cell-based.
As for `CC(c1nnc(-c2ccccc2)o1)N1CCc2cncnc2C1` (centres undefined), the cytotoxicity at 70.5 h is -4.24%. Under `Cc1ccsc1CN(C)c1cc(N2CCCC2CO)ncn1` (centres undefined) stands -3.13%.

For `COc1cccc2c1N(C(=O)c1ccc(C)nc1)CCC2`, the cytotoxicity at 70.5 h worked out at 4.1%. The same measure for `O=C(c1ccc2c(c1)CCO2)N1CCN(c2ncccn2)CC1`: 2.69%; for `CCCn1ccnc1SCCNS(=O)(=O)c1ccccc1`: -1.16%; for `CCN(Cc1noc(C(C)C)n1)Cc1ccc(C#N)cc1F`: 27.6%.

As for `N#Cc1c(Cl)nsc1N1CCN(CC2CC2)CC1`, the cytotoxicity at 70.5 h is 2.5%. Turning to `COc1ccc(C)c2c1N(C(=O)c1cnc3onc(C)c3c1)CCC2`, the cytotoxicity at 70.5 h was 2.65%.

`COc1ccc(C)c2c1N(C(=O)c1ccc3nnc(C)n3c1)CCC2`: the cytotoxicity at 70.5 h was -2.94%. The same measure for `CCCN(CC(F)(F)F)C(=O)c1cc(F)cc2[nH]cnc12`: 0.747%; for `CC(C)c1nc(/C=C/c2ccc(O)c(Cl)c2)ncc1C(=O)O`: -4.86%. The same measure for `CC(C)(C#N)c1ccc(NS(=O)(=O)CC2CCCCO2)cc1` (centres undefined): -0.0974%; for `N#Cc1cccc(S(=O)(=O)N2CC(CC(=O)O)c3ccccc32)c1` (centres undefined): -4.94%. Under `CC(C)c1nc(/C=C/c2cnn(-c3ccccc3)c2)ncc1C(=O)O` stands -1.23%.

`CNS(=O)(=O)CC(=O)NC(C)Cc1ccccc1Br` (centres undefined): the cytotoxicity at 70.5 h amounted to 3.97%.

For `CC(C)c1nnc(NCCS(C)(=O)=O)s1`, the cytotoxicity at 70.5 h was -0.429%.

`CNS(=O)(=O)CC(=O)NC(C)Cc1ccc(Br)cc1` (centres undefined): the cytotoxicity at 70.5 h came to 2.68%. Regarding `CNS(=O)(=O)CC(=O)NC(C)Cc1ccc(-c2ccccc2)cc1` (centres undefined), the cytotoxicity at 70.5 h worked out at 1.33%. Consider `CCNC(=O)NC1CN(Cc2ccncc2Cl)C[C@@H]1OC` (some centres undefined), for which the cytotoxicity at 70.5 h was found to be 28.4%. Under `Cc1ccc(-c2ncc(CNc3cnccc3CO)s2)cc1` stands 3.65%; under `OCc1ccncc1NCc1cnc(-c2ccccn2)s1`, 0.118%.

As for `CN(C)C(=O)Cc1ccccc1NCc1cccc2cccnc12`, the cytotoxicity at 70.5 h was determined as 57.4%. The same measure for `CCN(Cc1noc(C2CC2)n1)Cc1ccc(C#N)cc1F`: 1.6%. With `Cc1cnn(CCNCc2c(C)nn(Cc3ccccc3)c2C)c1`, the cytotoxicity at 70.5 h turned out to be 23.6%. With `COCCN(CCOC)C(=O)c1cccc(Cn2nc(C)cc2C)c1`, the cytotoxicity at 70.5 h worked out at 0.115%. Under `CCN(CCC(=O)OC)C(=O)c1cc(F)cc2[nH]cnc12` stands 0.0493%; under `N#Cc1ccc(S(=O)(=O)N2CC(CC(=O)O)c3ccccc32)cc1` (centres undefined), -3.42%; under `CNS(=O)(=O)CC(=O)NC(C)Cc1cccc(Cl)c1` (centres undefined), -2.05%. Under `CCN(Cc1noc(C(C)(C)C)n1)Cc1ccc(C#N)cc1F` stands -6.26%; under `Cc1c(C(=O)NS(=O)(=O)c2ccsc2)cnn1CC(C)C`, 4.87%; under `CC(=O)NC(CC(=O)Nc1nc(C)c(C)s1)c1ccccc1` (centres undefined), 0.551%. As to `CC(Cn1cccn1)NC(=O)N(C)Cc1ccsc1` (centres undefined), the cytotoxicity at 70.5 h is -16.6%. As to `CC(Cn1ccnc1)NC(=O)N(C)Cc1ccsc1` (centres undefined), the cytotoxicity at 70.5 h is -27.1%. Take `O=C1CCCN1c1cccc(CNCc2nc(-c3ccco3)no2)c1`: the cytotoxicity at 70.5 h was -17.4%.

Regarding `CNC(=O)NC(=O)CCSCc1cc(Cl)cc2cccnc12`, the cytotoxicity at 70.5 h was -16.5%. Under `Cc1cc(C)cc(OCC(=O)N2CCCN(CC(N)=O)CC2)c1` stands -16.4%. With `NC(=O)NC(=O)CCSCc1cc(F)cc2cccnc12`, the cytotoxicity at 70.5 h was -29.1%. The same measure for `CC(C)NC(=O)N(C)C1CCN(c2ccccc2Cl)C1=O` (centres undefined): -21.1%; for `COCc1noc(-c2cc(Cl)c3c(c2)OCO3)n1`: -19.3%; for `Cc1nccn1CCCNc1nccnc1C#N`: 44.8%. Under `COc1ccccc1S(=O)(=O)Nc1cnc(O)cc1C` stands -10.5%; under `CCN(CC)C(=O)COc1ccnc2cc(OC)ccc12`, -19.4%; under `CC(C)c1nsc(N2CCS(=O)(=O)CC2)n1`, -22.3%. With `Clc1cnc(NCc2ccccc2N2CCOCC2)nc1`, the cytotoxicity at 70.5 h is -14.4%. Under `CN(Cc1nccn1C)C(CO)c1cccc(Br)c1` (centres undefined) stands -28.6%; under `CC(Cn1cccn1)NCc1cnc(N2CCCC2)nc1` (centres undefined), -3.66%; under `CCC(C)(COc1ncccc1Cl)NCC(=O)Nc1ccc(Br)cn1` (centres undefined), 38.6%.

Regarding `O=S(=O)(CCNCCn1cccn1)c1ccccc1`, the cytotoxicity at 70.5 h is -18.7%.

For the compound `CCC(C)(COc1ncccc1Cl)NCC(=O)NCC(C)C` (centres undefined), the cytotoxicity at 70.5 h was -30.2%. Under `COc1cc(CNC(=O)NCCCF)cc(Br)c1OC` stands -2.35%; under `CCc1nc(NS(=O)(=O)c2ccc(C)cc2Cl)no1`, -4.3%; under `CCc1nc(NS(=O)(=O)c2cc(C)ccc2F)no1`, -8.12%. Under `COc1cccc(S(=O)(=O)CCN2CCCN(C(C)=O)CC2)c1` stands 0.259%; under `CC(=O)c1ccccc1C(=O)NCC1(CO)CC1`, 4.58%; under `Cc1nc(C)n(CC2CCCCN2CCCS(=O)(=O)N(C)C)n1` (centres undefined), 3.2%. For `Cn1cc(S(=O)(=O)N2CCCC2CC(=O)c2cccs2)cn1` (centres undefined), the cytotoxicity at 70.5 h was -9.81%. Under `CC(C)CCC(C)NC(=O)c1ccc(OCC(N)=O)cc1` (centres undefined) stands -3.72%. Under `CCC(CNC(=O)c1ccc(=O)[nH]n1)N1CCc2ccccc2C1` (centres undefined) stands -10.3%; under `Cc1nc(CNC(=O)NCC(O)c2cccc(Cl)c2)cs1` (centres undefined), 5.52%. Under `CCN(Cc1ccco1)C(=O)NCc1nnc2n1CCC2` stands -13.2%; under `c1ccc(-c2noc(CN3CCC(c4ccn[nH]4)CC3)n2)cc1`, -14.9%; under `CC(=O)N1CCCN(C(=O)c2oc(Br)cc2C)CC1`, -3.38%. On to `Cc1ccc(C(O)CNC(=O)NCc2nc(C)cs2)cc1` (centres undefined), for which the cytotoxicity at 70.5 h is -2.07%. The same measure for `CC(=O)c1cccc(OCCCC(=O)N(C)CCc2ccncc2)c1`: -10.1%; for `CC(CNC(=O)c1cccnc1Oc1cccnc1)N(C)C` (centres undefined): -8.64%.

With `O=S(=O)(CCNCc1ccc2c(c1)CCO2)N1CCOCC1`, the cytotoxicity at 70.5 h was 12.8%. The same measure for `O=C(NCCOc1ccc(F)c(F)c1)NCc1cccc(CO)c1`: -9.23%. The same measure for `CN(Cc1ccco1)Cc1ccccc1CNC(=O)c1ccncc1`: -8%. Under `CN(Cc1ccco1)Cc1ccccc1CNC(=O)c1ccc[nH]1` stands -9.87%; under `COc1ccc(OCC(=O)NS(=O)(=O)c2cc(F)ccc2F)cc1`, 20.8%; under `Cc1c(I)cccc1C(=O)NCC1(CO)CC1`, -7.8%. Turning to `COc1ccc(C(CO)NC(=O)Nc2cccnc2)cc1` (centres undefined), the cytotoxicity at 70.5 h is 12.6%.

For the compound `CC(CNC(=O)c1ccccc1Oc1cccnc1)N(C)C` (centres undefined), the cytotoxicity at 70.5 h was -6.12%.

In the case of `Cc1nc(C)n(CC2CCCCN2CCS(C)(=O)=O)n1` (centres undefined), the cytotoxicity at 70.5 h is 12.7%. The same measure for `CCc1noc(CNc2cc(F)ccc2OCC2CCCO2)n1` (centres undefined): -6.07%.

In the case of `CCOC(C)c1nc(CN2CCN(c3nccc(C)n3)CC2)cs1` (centres undefined), the cytotoxicity at 70.5 h was -8.29%. The same measure for `Fc1cc(CNCc2ccc3c(c2)CCO3)ccc1N1CCOCC1`: -6.5%; for `Cc1ccc(-c2nc(CN3CCOC(Cn4cccn4)C3)cs2)o1` (centres undefined): -13.3%. Under `COc1ccc(F)cc1C(C)NC(=O)Nc1nnc(C)s1` (centres undefined) stands -12.6%; under `CCn1cc(C(=O)NC2CCN(S(C)(=O)=O)CC2)c2ccccc21`, -9.93%; under `CC(=O)NCCNC(=O)c1cnc(-c2ccccc2)nc1`, -17.1%. Under `Cc1cc(CNC(=O)C2CCCCN2C(=O)OC(C)(C)C)no1` (centres undefined) stands -10.1%. With `N#Cc1ccnc(N2CCN(Cc3cccc(F)c3)CC2)c1`, the cytotoxicity at 70.5 h was -6.08%. The same measure for `CC(C)c1cc(C(=O)N2CCN(Cc3ccsc3)CC2)n[nH]1`: -9.01%; for `Cc1ccc(S(=O)(=O)N2CSCC2C(=O)N(C)C2CC2)cc1Cl` (centres undefined): -12.2%. Under `Cc1noc(C)c1CN1CCN(C(=O)Cn2cncn2)CC1` stands -5.67%. In the case of `CCOC(=O)NC(CNC(=O)c1ncccn1)CC(C)C` (centres undefined), the cytotoxicity at 70.5 h is -7.23%. Consider `CCOc1cccc(NS(=O)(=O)c2cc(C)c(C(=O)O)s2)c1`, for which the cytotoxicity at 70.5 h came to 8.89%. The same measure for `CCN1CCN(c2ccc(F)cc2C(C)NCc2ccncc2)CC1` (centres undefined): -1.51%; for `Cn1cc(N2CCC(NC(=O)c3c(F)cccc3F)C2=O)cn1` (centres undefined): -2.48%; for `CCC(CC)c1cc(CNC(=O)N2CCOCC2CC)on1` (centres undefined): -10.6%. The same measure for `CN(Cc1ccncc1)C(=O)Nc1cnn(CC2CCCO2)c1` (centres undefined): -3.42%; for `CN(C)c1ccc(CCCNC(=O)Nc2ccc(C#N)cc2)cc1`: 1.4%; for `CC(C)(C)c1nnc(CN2CCN(S(C)(=O)=O)CC2)o1`: -2.04%. As for `Cc1ccc(CNC(=O)N2CCCCC2CCNS(C)(=O)=O)cc1` (centres undefined), the cytotoxicity at 70.5 h is -8.15%.

On to `NC(=O)C1CCN(C(=O)NCc2ccccc2Cn2cncn2)CC1`, for which the cytotoxicity at 70.5 h is -3.83%.

On to `O=C(NCCNC(=O)N1CCC(c2ccccc2)C1)C1CC1` (centres undefined), for which the cytotoxicity at 70.5 h was -6.87%. As for `CC(C)CS(=O)(=O)CC(=O)N(C)Cc1ccc(OC(F)F)cc1`, the cytotoxicity at 70.5 h was -3.66%.

For the compound `O=C(NCCCNCC1CNc2ccnn2C1)c1ccccc1` (centres undefined), the cytotoxicity at 70.5 h was -12%. Under `O=C(c1cccnc1-n1cccn1)N1CCN(CC2CC2)CC1` stands -11%; under `CC(C(=O)NCc1ccnc(Oc2ccc(F)cc2)c1)n1cncn1` (centres undefined), -9.56%; under `Cc1nc(NC(=O)CN2CCc3c(nc(C(C)C)n3C)C2)sc1C`, -7.61%. In the case of `CC(C)c1nc(CN(C)CC2CCN(CCO)CC2)no1`, the cytotoxicity at 70.5 h is -5.69%. The same measure for `CCOc1cccc(C(C)NC(=O)N2CCC(C(N)=O)CC2)c1` (centres undefined): -8.18%.
